Data as given in ChEMBL document CHEMBL3784917, “Recent Progress in Histone Demethylase Inhibitors” (J Med Chem, 2016).
Blank lines part the entries; values can stand above or below the compound they belong to.

Experiments:
[1] = Antiproliferative activity against human SU-DHL6 cells assessed as reduction in cell viability after 120 hrs by ATPlite assay; format: functional, cell-based; settings: SU-DHL-6, 120 h
[2] = Antiproliferative activity against human KMS-12-BM cells assessed as reduction in cell viability after 120 hrs by ATPlite assay; format: functional, cell-based
[3] = Antiproliferative activity against human MM1S cells assessed as reduction in cell viability after 120 hrs by ATPlite assay; format: functional, cell-based; settings: MM1.S
[4] = target: T1, Lysine-specific demethylase 4E (Homo sapiens, UniProt B2RXH2); experiment: Inhibition of KDM4E (unknown origin) preincubated for 15 mins followed by histone substrate addition measured after 1 hr by alphascreen assay
T1 sequence (B2RXH2 whole entry): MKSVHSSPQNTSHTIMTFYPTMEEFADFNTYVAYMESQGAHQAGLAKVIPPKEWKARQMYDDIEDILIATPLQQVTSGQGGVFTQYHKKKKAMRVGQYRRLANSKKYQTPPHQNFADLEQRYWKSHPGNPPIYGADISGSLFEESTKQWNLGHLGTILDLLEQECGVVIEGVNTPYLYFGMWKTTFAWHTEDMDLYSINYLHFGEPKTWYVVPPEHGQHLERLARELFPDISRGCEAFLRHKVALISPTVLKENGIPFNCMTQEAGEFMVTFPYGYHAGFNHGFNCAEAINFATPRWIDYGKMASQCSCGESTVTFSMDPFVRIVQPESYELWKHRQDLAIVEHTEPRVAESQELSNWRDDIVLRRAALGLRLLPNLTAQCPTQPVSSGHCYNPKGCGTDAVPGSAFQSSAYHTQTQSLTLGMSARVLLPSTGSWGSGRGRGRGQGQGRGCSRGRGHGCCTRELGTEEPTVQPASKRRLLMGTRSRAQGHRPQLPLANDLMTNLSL

[5] = target: T2, Lysine-specific demethylase 2A (Homo sapiens, UniProt Q9Y2K7); experiment: Inhibition of KDM2A (unknown origin) preincubated for 15 mins followed by histone substrate addition measured after 1 hr by alphascreen assay
T2 sequence (Q9Y2K7 whole entry): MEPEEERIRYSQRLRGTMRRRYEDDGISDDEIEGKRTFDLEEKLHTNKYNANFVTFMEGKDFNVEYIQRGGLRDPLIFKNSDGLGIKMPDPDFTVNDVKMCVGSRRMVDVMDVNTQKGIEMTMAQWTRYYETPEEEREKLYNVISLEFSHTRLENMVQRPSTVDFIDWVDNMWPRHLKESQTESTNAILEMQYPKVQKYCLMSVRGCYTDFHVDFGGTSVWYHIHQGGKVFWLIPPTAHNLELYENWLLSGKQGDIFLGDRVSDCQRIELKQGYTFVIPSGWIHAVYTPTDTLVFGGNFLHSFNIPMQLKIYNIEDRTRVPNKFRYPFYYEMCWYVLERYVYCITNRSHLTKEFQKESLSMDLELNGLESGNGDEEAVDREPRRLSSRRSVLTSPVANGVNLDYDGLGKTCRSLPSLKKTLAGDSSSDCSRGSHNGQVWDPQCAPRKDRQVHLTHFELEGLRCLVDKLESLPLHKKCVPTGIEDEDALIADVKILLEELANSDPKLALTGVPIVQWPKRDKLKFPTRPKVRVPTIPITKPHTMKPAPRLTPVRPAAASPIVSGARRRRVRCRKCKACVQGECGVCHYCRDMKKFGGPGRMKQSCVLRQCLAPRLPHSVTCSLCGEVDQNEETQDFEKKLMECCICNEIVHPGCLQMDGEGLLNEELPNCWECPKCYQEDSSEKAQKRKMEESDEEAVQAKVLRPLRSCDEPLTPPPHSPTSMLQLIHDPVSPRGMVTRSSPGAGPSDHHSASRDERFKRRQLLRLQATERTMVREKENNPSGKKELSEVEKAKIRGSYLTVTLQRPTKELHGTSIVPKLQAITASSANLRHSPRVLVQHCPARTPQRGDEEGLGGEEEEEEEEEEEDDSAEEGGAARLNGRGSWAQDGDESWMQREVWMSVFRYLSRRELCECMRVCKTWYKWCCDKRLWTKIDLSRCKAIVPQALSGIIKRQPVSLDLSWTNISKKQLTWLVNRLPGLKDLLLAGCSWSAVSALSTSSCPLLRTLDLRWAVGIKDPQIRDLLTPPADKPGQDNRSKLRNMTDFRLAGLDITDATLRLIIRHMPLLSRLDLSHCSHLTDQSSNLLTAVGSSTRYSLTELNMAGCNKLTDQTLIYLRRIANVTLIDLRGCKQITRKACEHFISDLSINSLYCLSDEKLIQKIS

[6] = target: Lysine-specific demethylase 5C (Homo sapiens, UniProt P41229); experiment: Inhibition of KDM5C (unknown origin) preincubated for 15 mins followed by histone substrate addition measured after 1 hr by alphascreen assay
Lysine-specific demethylase 5C, sequence (P41229 whole entry): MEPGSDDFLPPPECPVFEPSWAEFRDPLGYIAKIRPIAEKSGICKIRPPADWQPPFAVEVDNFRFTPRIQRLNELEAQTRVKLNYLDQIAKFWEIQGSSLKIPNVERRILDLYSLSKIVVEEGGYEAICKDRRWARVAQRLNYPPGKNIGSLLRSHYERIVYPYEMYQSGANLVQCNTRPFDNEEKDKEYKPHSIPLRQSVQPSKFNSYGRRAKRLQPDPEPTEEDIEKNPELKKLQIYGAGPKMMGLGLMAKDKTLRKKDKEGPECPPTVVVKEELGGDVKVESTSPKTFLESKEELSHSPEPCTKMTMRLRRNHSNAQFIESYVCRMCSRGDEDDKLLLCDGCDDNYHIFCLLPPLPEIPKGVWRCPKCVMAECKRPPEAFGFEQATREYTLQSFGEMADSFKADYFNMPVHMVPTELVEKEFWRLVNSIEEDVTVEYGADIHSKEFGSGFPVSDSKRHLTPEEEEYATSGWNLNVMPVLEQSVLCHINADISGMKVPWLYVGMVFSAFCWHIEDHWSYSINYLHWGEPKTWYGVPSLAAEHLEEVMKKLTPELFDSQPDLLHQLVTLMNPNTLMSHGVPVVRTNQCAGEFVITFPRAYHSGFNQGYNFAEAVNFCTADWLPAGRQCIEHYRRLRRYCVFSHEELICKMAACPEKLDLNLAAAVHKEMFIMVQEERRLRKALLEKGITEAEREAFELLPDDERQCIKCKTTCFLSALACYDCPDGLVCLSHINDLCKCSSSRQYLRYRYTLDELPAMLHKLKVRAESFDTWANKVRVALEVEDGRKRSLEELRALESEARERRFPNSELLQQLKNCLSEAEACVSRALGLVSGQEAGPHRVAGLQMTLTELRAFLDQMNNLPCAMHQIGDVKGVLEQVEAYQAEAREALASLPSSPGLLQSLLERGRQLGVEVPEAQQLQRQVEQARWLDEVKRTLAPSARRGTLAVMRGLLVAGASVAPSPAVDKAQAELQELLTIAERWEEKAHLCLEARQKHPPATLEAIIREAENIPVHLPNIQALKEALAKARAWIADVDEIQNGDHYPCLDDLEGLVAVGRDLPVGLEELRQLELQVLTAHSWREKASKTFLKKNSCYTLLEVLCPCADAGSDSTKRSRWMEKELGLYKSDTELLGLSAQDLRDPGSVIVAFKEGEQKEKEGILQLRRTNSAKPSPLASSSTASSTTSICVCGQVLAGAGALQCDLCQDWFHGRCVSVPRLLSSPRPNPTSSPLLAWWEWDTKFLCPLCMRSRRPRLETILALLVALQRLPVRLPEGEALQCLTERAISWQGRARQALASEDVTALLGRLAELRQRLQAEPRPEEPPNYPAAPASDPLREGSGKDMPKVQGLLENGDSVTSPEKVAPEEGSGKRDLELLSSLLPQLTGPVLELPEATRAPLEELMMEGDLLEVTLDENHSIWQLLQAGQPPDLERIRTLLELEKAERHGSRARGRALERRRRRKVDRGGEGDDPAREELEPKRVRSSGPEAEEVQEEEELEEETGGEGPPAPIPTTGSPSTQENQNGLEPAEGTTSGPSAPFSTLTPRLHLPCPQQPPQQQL

[7] = target: T3, Lysine-specific demethylase 6B (Homo sapiens, UniProt O15054); experiment: Inhibition of KDM6B (unknown origin) preincubated for 15 mins followed by histone substrate addition measured after 1 hr by alphascreen assay
T3 sequence (O15054 whole entry): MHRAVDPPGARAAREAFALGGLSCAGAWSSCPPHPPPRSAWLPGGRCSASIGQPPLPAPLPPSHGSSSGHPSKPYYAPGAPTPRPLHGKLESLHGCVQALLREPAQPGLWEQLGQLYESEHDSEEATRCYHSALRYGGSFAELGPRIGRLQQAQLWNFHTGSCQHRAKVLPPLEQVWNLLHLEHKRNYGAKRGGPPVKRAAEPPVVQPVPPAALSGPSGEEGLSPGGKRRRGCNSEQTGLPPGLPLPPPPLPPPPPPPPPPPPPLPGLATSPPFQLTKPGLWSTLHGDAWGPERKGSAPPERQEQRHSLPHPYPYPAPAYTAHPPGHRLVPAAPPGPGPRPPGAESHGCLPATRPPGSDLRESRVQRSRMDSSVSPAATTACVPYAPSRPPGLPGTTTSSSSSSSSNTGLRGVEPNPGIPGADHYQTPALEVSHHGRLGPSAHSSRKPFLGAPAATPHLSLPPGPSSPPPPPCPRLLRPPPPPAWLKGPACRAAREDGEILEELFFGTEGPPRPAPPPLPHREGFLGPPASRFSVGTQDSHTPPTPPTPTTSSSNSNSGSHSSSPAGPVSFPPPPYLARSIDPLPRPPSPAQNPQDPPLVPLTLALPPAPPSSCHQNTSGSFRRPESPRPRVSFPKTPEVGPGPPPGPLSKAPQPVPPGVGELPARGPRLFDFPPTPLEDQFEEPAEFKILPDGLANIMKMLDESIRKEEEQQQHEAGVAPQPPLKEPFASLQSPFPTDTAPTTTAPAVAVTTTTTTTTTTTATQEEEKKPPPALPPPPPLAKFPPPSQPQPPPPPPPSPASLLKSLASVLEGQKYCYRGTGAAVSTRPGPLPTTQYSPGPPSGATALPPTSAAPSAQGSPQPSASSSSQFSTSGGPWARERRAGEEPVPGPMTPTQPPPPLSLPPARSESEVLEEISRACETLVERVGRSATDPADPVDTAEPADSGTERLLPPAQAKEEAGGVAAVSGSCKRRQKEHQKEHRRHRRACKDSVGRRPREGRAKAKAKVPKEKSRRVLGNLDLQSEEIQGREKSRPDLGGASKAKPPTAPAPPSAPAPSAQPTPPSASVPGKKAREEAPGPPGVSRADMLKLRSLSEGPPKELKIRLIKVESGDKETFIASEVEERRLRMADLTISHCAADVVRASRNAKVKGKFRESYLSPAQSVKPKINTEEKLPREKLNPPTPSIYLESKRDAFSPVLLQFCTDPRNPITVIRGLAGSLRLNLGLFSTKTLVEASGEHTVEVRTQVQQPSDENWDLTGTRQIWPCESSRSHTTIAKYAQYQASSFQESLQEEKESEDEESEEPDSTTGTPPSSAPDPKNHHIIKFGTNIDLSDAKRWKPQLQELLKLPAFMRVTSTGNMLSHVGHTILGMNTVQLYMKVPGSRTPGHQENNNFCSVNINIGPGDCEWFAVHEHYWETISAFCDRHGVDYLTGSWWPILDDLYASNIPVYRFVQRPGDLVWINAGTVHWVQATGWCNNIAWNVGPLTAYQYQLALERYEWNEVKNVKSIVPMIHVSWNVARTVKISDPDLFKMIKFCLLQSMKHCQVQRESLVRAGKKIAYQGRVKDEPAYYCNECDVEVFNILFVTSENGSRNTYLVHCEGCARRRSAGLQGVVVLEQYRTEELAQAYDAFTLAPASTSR

[8] = target: T4, Lysine-specific demethylase 4C (Homo sapiens, UniProt Q9H3R0); experiment: Inhibition of KDM4C (unknown origin) preincubated for 15 mins followed by histone substrate addition measured after 1 hr by alphascreen assay
T4 sequence (Q9H3R0 whole entry): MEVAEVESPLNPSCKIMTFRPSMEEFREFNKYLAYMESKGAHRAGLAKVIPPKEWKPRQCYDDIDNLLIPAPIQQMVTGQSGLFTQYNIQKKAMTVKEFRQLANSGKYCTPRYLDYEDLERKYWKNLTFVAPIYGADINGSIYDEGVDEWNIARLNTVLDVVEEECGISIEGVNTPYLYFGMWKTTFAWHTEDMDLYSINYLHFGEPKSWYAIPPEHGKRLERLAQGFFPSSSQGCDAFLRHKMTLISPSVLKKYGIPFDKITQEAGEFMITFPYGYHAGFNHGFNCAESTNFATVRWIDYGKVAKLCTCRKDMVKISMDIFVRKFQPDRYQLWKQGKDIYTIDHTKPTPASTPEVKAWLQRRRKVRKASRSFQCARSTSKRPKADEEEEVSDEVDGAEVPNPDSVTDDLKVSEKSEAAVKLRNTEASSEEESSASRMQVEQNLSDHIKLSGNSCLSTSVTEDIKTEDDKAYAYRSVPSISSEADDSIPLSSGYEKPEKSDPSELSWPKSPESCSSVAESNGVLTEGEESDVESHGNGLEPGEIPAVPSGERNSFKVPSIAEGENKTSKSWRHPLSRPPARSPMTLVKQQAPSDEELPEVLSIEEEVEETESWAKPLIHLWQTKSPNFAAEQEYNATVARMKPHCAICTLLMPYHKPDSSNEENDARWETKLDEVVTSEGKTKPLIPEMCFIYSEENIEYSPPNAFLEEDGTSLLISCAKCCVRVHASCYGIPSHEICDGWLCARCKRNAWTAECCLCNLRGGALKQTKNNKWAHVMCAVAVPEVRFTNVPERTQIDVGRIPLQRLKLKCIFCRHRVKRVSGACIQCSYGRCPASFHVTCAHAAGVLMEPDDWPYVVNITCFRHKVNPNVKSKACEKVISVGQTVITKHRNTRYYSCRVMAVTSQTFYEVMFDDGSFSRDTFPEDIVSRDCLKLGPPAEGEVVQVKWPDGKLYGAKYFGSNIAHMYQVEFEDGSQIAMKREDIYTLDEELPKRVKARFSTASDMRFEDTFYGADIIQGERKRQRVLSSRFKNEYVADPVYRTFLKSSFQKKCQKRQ

[9] = Antiproliferative activity against human NALM6 cells assessed as reduction in cell viability after 120 hrs by ATPlite assay; format: functional, cell-based; settings: NALM-6, 120 h
[10] = target: T4, Lysine-specific demethylase 4C; experiment: Inhibition of KDM4C (unknown origin) using H3K9me3 as substrate after 24 hrs by alphascreen assay
[11] = target: T1, Lysine-specific demethylase 4E; experiment: Inhibition of KDM4E (unknown origin) after 24 hrs by alphascreen assay
[12] = target: T2, Lysine-specific demethylase 2A; experiment: Inhibition of KDM2A (unknown origin) after 24 hrs by alphascreen assay
[13] = target: T3, Lysine-specific demethylase 6B; experiment: Inhibition of KDM6B (unknown origin) after 24 hrs by alphascreen assay
[14] = target: Lysine-specific demethylase 5B (Homo sapiens, UniProt Q9UGL1); experiment: Inhibition of KDM5B in human U2OS cells assessed as reduction in demethylation of H3K4me3 after 20 hrs by Hoechst 33342 staining based immunofluorescence assay; format: cell-based

Structure (SMILES): CCN(CCN(C)C)C(=O)CNCc1cc(CNC(=O)C(F)(F)F)ccn1
- EC50 [1]: < 0.25 µM
- EC50 [2]: < 0.25 µM
- EC50 [3]: < 0.25 µM

Structure (SMILES): CCN(CC)CCCCNCc1cc(C=O)ccn1
- EC50 [9]: < 0.25 µM

Structure (SMILES): CCCCCCCCOC(=O)c1ccc(O)c2ncccc12
- IC50 [10]: 3.9 µM
- IC50 [11]: 45 µM
- IC50 [12]: > 100 µM
- IC50 [13]: > 100 µM

Second part, the compound after the results:

- IC50 [4]: 5 µM
- IC50 [5]: 34 µM
- IC50 [6]: 178 µM
- IC50 [7]: 106 µM
- IC50 [8]: 5 µM
Structure (SMILES): Cc1ccsc1C(NC(=O)c1ccccc1)c1cc(Cl)c2cccnc2c1O (racemic)

- IC50 [14]: 1 µM
Structure (SMILES): CCN(CCN(C)C)C(=O)CNCc1cc(C(=O)O)ccn1
